Test results: patent publication US5776957A, “Nornicotine enantiomers for use as a treatment for dopamine related conditions and disease states” (The University of Kentucky Research Foundation, priority 1996, dated 1998)
“Also recorded” adds a separate entry of the source. Read-outs that look alike come from different tables or passages of the source.

Assays:
[1] = GC-MS, Deutsch et al., 1992; cited from earlier work
[2] = i.p. [14C-N-methyl]NIC, HPLRC; cited from earlier work
[3] = system: [3H]DA-preloaded rat striatal slices (nicotinic receptors); test: [3H]overflow (DA release) from [3H]DA-preloaded rat striatal slices; format: cell-based
Description: In vitro pharmacological effects of NIC are generally investigated using either striatal slices or synaptosome preparations preloaded with [^3 H] DA. NIC-evoked [^3 H]overflow is obtained routinely in the presence of nomifensine (10 μM; a DA uptake inhibitor) and for pargyline (10 μM, a monoamine oxidase inhibitor) in the superfusion buffer, such that [^3 H]overflow represents primarily [^3 H]DA rather than [H]DA-metabolites (Zumstein et al., 1981, Hoffmann and Cubeddu, 1982, Dwoskin and Zahniser, 1986, Rapier et al., 1988), and for this reason, [^3 H]overflow also will be referred to as [^3 H] DA release in the proposal.
The present studies use striatal slices superfused with various concentrations of NIC or norNIC for prolonged periods.
FIG. 4. […] Insets illustrate the response to the low concentration range. […] NIC exposure indicated by the bar under time course. Note: 1-min sample collection period. […] N=4 rats.
Rat striatal slices were depolarized with 10 μM NIC, 20 mM K+or 1 Hz, 60 pulses or 3 Hz, 180 pulses electrical field stimulation. […] N=4.
MEC or DHβE was included in the superfusion buffer for 60 min prior to the addition of NIC, and superfusion continued for 60 min in the presence of NIC+antagonist.

[4] = NIC and metabolites in rat brain after s.c. injection of radiolabelled NIC; format: in vivo
Description: NIC metabolism studies involving HPLRC analysis invariably utilize NIC with a radiolabel (i.e., [^3 H], [^14 C] or [^11 C]) incorporated in the methyl group. However N-demethylated NIC metabolites (norNIC and norCOT) cannot be detected after injection of such radionuclides, since the label is lost in the formation of these metabolites. NIC and four NIC metabolites have recently been detected in rat brain 4 hr after s.c. injection of [2'-^14 C]NIC (FIG. 3, Table I). Three of these metabolites have been identified as COT, norNIC and norCOT. A fourth minor metabolite (Peak B) has not been completely identified but appears to be an N-demethylated metabolite, since it is not detected in the [^3 H-N-methyl]NIC studies.
COT, and therefore, is unlikely to originate from COT N-demethylation. 3-HydroxyCOT and its glucuronide conjugate were not detected as metabolites of either NIC or COT in brain, even though these are major biotransformation products in the periphery (Crooks, 1993).
It appears that NIC metabolites which accumulate with a time course that correlates with the development of behavioral sensitization to NIC have a role in eliciting sensitization to NIC. The inventors have detected NIC, COT, norNIC and norCOT in brain 4 hr following acute s.c. injection of (±)[2'-^14 C]NIC. S(-) [^3 H] -N-methyl]NIC is unsuitable for studying brain metabolism of NIC, since nor-metabolites (i.e., demethylated metabolites) cannot be detected due to [^3 H]-loss during metabolism (Crooks et al., 1995b, AP 7). Thus, commercially available (±)[2'-^14 C]NIC was used to determine NIC metabolites present in brain. This form of radiolabelled NIC provides a metabolically stable [^14 C]-label which allows measurement of all potential NIC metabolites.
A second "metabolite" (Peak A, FIG. 2) was also detected at each time point and most likely results from a combination of metabolic cleavage of the N-methyl group and dissociated-[^3 H], i e, Peak A represents an oxidized 1-carbon unit and indicates the extent of NIC N-demethylation. Note, in our subsequent studies with [2'-^14 C]NIC, Peak A was not observed, which is consistent with our interpretation of the results (Table 1).

[5] = Stolerman et al., 1984; cited from earlier work
[6] = system: N-methyl-D-aspartate(NMDA) receptor; settings: MK-801 site within the channel; cited from earlier work
[7] = Stolerman et al. (1995), cited from earlier work
[8] = water, ethyl alcohol, ether, chloroform, benzene, ethyl acetate, carbon disulfide; cited from earlier work
[9] = cited from earlier work
[10] = system: nicotinic receptor sites in the brain; test: displacement of nicotine from nicotinic receptor sites in the brain; format: binding
[11] = Locomotor activity assay, acute and repeated treatment, S(-) nicotine challenge, saline challenge; format: in vivo, rat; settings: for behavioral sensitization after repeated administration: 8 injections once every 48 hrs, nicotine 1 mg/kg, R(+) 0.3-10 mg/kg, S(-) nornicotine 10 mg/kg; for enabling of sensitization to S(-) nicotine: repeated R(+) nornicotine, S(-) nicotine challenge
Description: (I mg/kg), norNIC (0.3-10 mg/kg) or R(+) norNIC (0.3-10 mg/kg) was administered peripherally (s.c., 8 injections once every 48 hrs) to groups of rats and locomotor activity was assessed for 50 min immediately after each injection.
In the present study, S(-) nicotine (1 mg/kg), R(+) nornicotine (1-10 mg/kg), S(-) nornicotine (1-10 mg/kg), or vehicle (saline) were administered s.c. to groups of rats (n=6) acutely or repeatedly (8 injections once every 48 hrs). Locomotor activity was measured during 50 min sessions immediately following drug or vehicle administration.
Male Sprague-Hawley rats (225-250 g) from Harlan Laboratories were housed two per cage with free access to food and water.
Activity was recorded automatically in a wooden test-chamber measuring 30×28×43 cm high. The chamber had white walls and a wire mesh floor over pine chip bedding. Two photobeams located 4.5 cm above the floor divided the chamber into four equal quadrants. Electromechanical equipment located in an adjacent room recorded photobeam interruptions automatically. A white noise generator provided an ambient 70 dB background noise in the test room in order to minimize extraneous sounds that might influence the animal's behavior in the test chamber. Rats were habituated to the chamber for 50 min on each of three consecutive days.
On the day immediately after the third habituation session, rats were randomly divided into groups (n=6/group) and were administered s.c. either S(-) nicotine (1 mg/kg), R(+) nornicotine (0.3, 1, 3 and 10 mg/kg), or vehicle (saline) to determine acute drug effects on locomotor activity. In a separate experiment, rats (n=6/group) were administered s.c. either S(-) nicotine (1 mg/kg), S(-) nornicotine (0.3, 1, 3 and 10 mg/kg), or vehicle (saline). To determine the effect of repeated drug administration on locomotor activity, drug or vehicle was administered respectively in the test-room once every 48 hrs for a total of 8 injections. After each injection, locomotor activity was recorded during a 50 min session (five 10-min blocks). On the ninth injection day (48 hrs following injection 8), each group of rats was administered a challenge dose (1 mg/kg) of S(-) nicotine in the test-room, and locomotor activity was determined immediately thereafter. On the tenth injection day, each group of rats was administered saline and locomotor activity recorded to determine potential conditioning effects of the repeated drug administration.
Post hoc analysis of pairwise comparisons was performed with Duncan's New Multiple Range test.

In the case of `CN1C(=O)CC[C@H]1c1cccnc1` [COT, Cotinine], the “presence in rat brain after peripheral NIC injection” value [1] is listed as “not found in rat brain”, the “detection in mouse brain” value [2] is listed as “detected” and the “evoked [3H]overflow” value ([3]; concentration-dependent) is listed as “concentration dependent increase”. For the same compound, the “detectability in brain at 18 hrs post-injection” value ([4]; 18 hrs) was “still detectable”, the “residence time in the CNS relative to NIC” value ([4]; rat brain) was “longer residence time in the CNS than NIC” and the “presence as metabolite in brain” value ([4]; rat brain, after s.c. radiolabelled NIC) was “major metabolite of NIC in brain”.
For `CNC1(C)C2CCC(C2)C1(C)C` (centres unmarked) [MEC, mecamylamine], the “effect on nicotine interoceptive cues” value [5] is listed as “blocks nicotine interoceptive cues”, the “inhibition of NIC-evoked [3H]overflow” value ([3]; 10 μM NIC, concentration-dependent) is listed as “robustly inhibited” and the “effect on [3H]DA release itself” value ([3]; 0.01-100 μM) is listed as “did not alter [^3 H]DA release itself”. The “inhibition of norNIC-evoked [3H]overflow” value ([3]; high concentrations (100 μM-3 mM) of norNIC) was “ineffective in inhibiting”, the “inhibition of norNIC-evoked [3H]overflow” value ([3]; low concentrations (<100 μM) of norNIC) was “effectively inhibited” and the “mode of antagonism of norNIC response” value ([3]; norNIC concentration-response curve) was “noncompetitive”. The NMDA receptor inhibition [6] was “noncompetitive inhibitor” and the “block of R(+) norNIC-induced decrease in locomotor activity” value [7] was “blocked”.
In the case of `CN1CCCC1=O` [N-methyl-2-pyrrolidone], the miscibility [8] is listed as “miscible with water”, the toxicity ([9]; Ames type assays and chronic exposure studies) is listed as “not revealed any significant toxicity” and the “irritation or sensitization potential” value ([9]; animal and human experiments) is listed as “very little irritation or sensitization potential”.
For `c1cncc([C@H]2CCCN2)c1` [R(+) nornicotine, R-(+) nornicotine], the “release of dopamine from presynaptic terminals” value ([3]; neuronal tissue) is listed as “stereoselective and receptor-mediated”, the “displacement of nicotine from nicotinic receptor sites” value [10] is listed as “cause displacement of nicotine” and the “cross-sensitization after chronic nicotine” value [7] is listed as “increased activity, demonstrating cross-sensitization; also recorded: increased activity (i.e., cross-sensitization)”. For the same compound, the “locomotor activity, acute” value [7] was “decreased locomotor activity”, the “cross-sensitization after chronic nicotine” value ([7]; listed as R(+) norNIC) was “cross-sensitization to R(+) norNIC was observed” and the “behavioral sensitization after repeated administration” value [11] was “did not produce behavioral sensitization; also recorded: did not result in behavioral sensitization; also recorded: does not”. The “behavioral sensitization after repeated administration” value ([11]; listed as R(+) norNIC) was “does not”, the “conditioned response to repeated administration (saline challenge)” value ([11]; 48 hrs after S(-) nicotine challenge) was “did not contribute to the observed behavioral sensitization” and the “cumulated locomotor activity after saline challenge” value ([11]; R(+) experiment, 0.3 mg/kg) was 368 ± 39 number of photobeam interruptions/50 min session. The “cumulated locomotor activity after saline challenge” value ([11]; R(+) experiment, 1.0 mg/kg) was 478 ± 40 number of photobeam interruptions/50 min session, the “cumulated locomotor activity after saline challenge” value ([11]; R(+) experiment, 3.0 mg/kg) was 498 ± 44 number of photobeam interruptions/50 min session and the “cumulated locomotor activity after saline challenge” value ([11]; R(+) experiment, 10 mg/kg) was 234 ± 30 number of photobeam interruptions/50 min session. For the same compound, the “locomotor activity time course” value ([11]; acute R(+) 0.3 mg/kg) was “small, but not significant, decreases”, the “locomotor activity time course” value ([11]; acute R(+) 10 mg/kg, initial 20 min) was “significantly decreased” and the “locomotor activity time course” value ([11]; acute R(+) 10 mg/kg, latter part of session) was “not different from the saline-control group”. For the same compound, the “cumulated locomotor activity vs saline-control” value ([11]; acute, 0.3 and 10 mg/kg, R(+) experiment) was “depression in activity”, the “locomotor activity, first 10 min” value ([11]; acute, R(+) 3 mg/kg s.c.) was 125±17 photobeam interruptions and the “locomotor activity, first 10 min after S(-) nicotine challenge” value ([11]; repeated R(+) 1 mg/kg) was 127±12 photobeam interruptions. For the same compound, the “locomotor activity, first 10 min after S(-) nicotine challenge” value ([11]; repeated R(+) 3 mg/kg) was 136+32 photobeam interruptions, the “locomotor activity time course” value ([11]; repeated R(+) 0.3-10 mg/kg) was “not different from that of the saline-control group” and the “cumulated locomotor activity after S(-) nicotine challenge” value ([11]; repeated R(+) 0.3 and 1 mg/kg) was “not different from the saline-control group”. The “S(-) nicotine-induced stimulation, first 10 min” value ([11]; repeated R(+) 1-10 mg/kg) was “significant (P<0.001) and dose-dependent”, the “cumulated locomotor activity after S(-) nicotine challenge” value ([11]; repeated R(+) 3 and 10 mg/kg) was “significant increases in activity” and the “enabling of sensitization to S(-) nicotine” value [11] was “enabled sensitization to S(-) nicotine; also recorded: dose-related sensitization to the stimulatory effect of S(-) nicotine”. For the same compound, the “enabling of sensitization to S(-) nicotine” value ([11]; listed as R(+) norNIC) was “enabled an enhanced response to NIC challenge”, the “S(-) nicotine-induced stimulation, first 10 min” value ([11]; repeated, R(+) 0.3 mg/kg) was “not significant” and the “cumulated locomotor activity vs saline-control” value ([11]; repeated, R(+) 0.3 mg/kg) was “decreased significantly”. The “tolerance to depressant effect” value ([11]; repeated, R(+) 0.3 mg/kg) was “tolerance did not develop”, the “tolerance to depressant effect” value ([11]; repeated, R(+) 10 mg/kg) was “tolerance developed” and the “cumulated locomotor activity vs saline-control” value ([11]; repeated, R(+) 1, 3 and 10 mg/kg) was “not different from that of the saline-control group”.
